Results: US20100041892A1, “Therapeutic agent for diabetes” (priority 2005, published 2010)

Compound	melting point [°C]
CCCCCS(=O)(=O)NC(=O)CCc1ccc(OCCOC)cc1Oc1ccccc1 [Example 219, 3-[4-(2-methoxyethoxy)-2-phenoxyphenyl]-N-(pentylsulfonyl)propanamide]	70.4 to 70.5
COCCOc1ccc(/C=C/C(=O)NS(=O)(=O)c2ccc(Cl)cc2)c(Oc2ncc(C(F)(F)F)cc2Cl)c1 [Example 229, (2E)-N-[(4-chlorophenyl)sulfonyl]-3-[2-{[3-chloro-5-(trifluoromethyl)pyridin-2-yl]oxy}-4-(2-methoxyethoxy)phenyl]acrylamide]	182 to 182.5
COCCOc1ccc(/C=C/C(=O)NS(=O)(=O)c2cccc(Cl)c2)c(Oc2ncc(C(F)(F)F)cc2Cl)c1 [Example 232, (2E)-N-[(3-chlorophenyl)sulfonyl]-3-[2-{[3-chloro-5-(trifluoromethyl)pyridin-2-yl]oxy}-4-(2-methoxyethoxy)phenyl]acrylamide]	157 to 158
COCCOc1ccc(/C=C/C(=O)NS(=O)(=O)c2ccc(C(F)(F)F)cc2)c(Oc2ncc(C(F)(F)F)cc2Cl)c1 [Example 234, (2E)-3-[2-{[3-chloro-5-(trifluoromethyl)pyridin-2-yl]oxy}-4-(2-methoxyethoxy)phenyl]-N-{[4-(trifluoromethyl)phenyl]sulfonyl}acrylamide]	186.3 to 186.5
COCCOc1ccc(/C=C/C(=O)NS(=O)(=O)c2ccc(C)cc2)c(Oc2ncc(C(F)(F)F)cc2Cl)c1 [Example 236, (2E)-3-[2-{[3-chloro-5-(trifluoromethyl)pyridin-2-yl]oxy}-4-(2-methoxyethoxy)phenyl]-N-[(4-methylphenyl)sulfonyl]acrylamide]	102.5 to 106.5
COCCOc1ccc(/C=C/C(=O)NS(=O)(=O)c2ccc(F)cc2)c(Oc2ncc(C(F)(F)F)cc2Cl)c1 [Example 237, (2E)-3-[2-{[3-chloro-5-(trifluoromethyl)pyridin-2-yl]oxy}-4-(2-methoxyethoxy)phenyl]-N-[(4-fluorophenyl)sulfonyl]acrylamide]	183 to 184
COCCOc1ccc(/C=C/C(=O)NS(=O)(=O)c2ccccn2)c(Oc2ncc(C(F)(F)F)cc2Cl)c1 [Example 239, (2E)-3-[2-{[3-chloro-5-(trifluoromethyl)pyridin-2-yl]oxy}-4-(2-methoxyethoxy)phenyl]-N-(pyridin-2-ylsulfonyl)acrylamide]	164 to 165
COCCOc1ccc(/C=C/C(=O)NS(=O)(=O)c2cccnc2)c(Oc2ncc(C(F)(F)F)cc2Cl)c1 [Example 240, (2E)-3-[2-{[3-chloro-5-(trifluoromethyl)pyridin-2-yl]oxy}-4-(2-methoxyethoxy)phenyl]-N-(pyridin-3-ylsulfonyl)acrylamide]	165 to 167
COCCOc1ccc(/C=C/C(=O)NS(=O)(=O)c2cccc(C)c2)c(Oc2ncc(C(F)(F)F)cc2Cl)c1 [Example 241, (2E)-3-[2-{[3-chloro-5-(trifluoromethyl)pyridin-2-yl]oxy}-4-(2-methoxyethoxy)phenyl]-N-[(3-methylphenyl)sulfonyl]acrylamide]	147 to 147.5
COCCOc1ccc(/C=C/C(=O)NS(=O)(=O)C(F)(F)F)c(Oc2ncc(C(F)(F)F)cc2Cl)c1 [Example 243, (2E)-3-[2-{[3-chloro-5-(trifluoromethyl)pyridin-2-yl]oxy}-4-(2-methoxyethoxy)phenyl]N-[(trifluoromethyl)sulfonyl]acrylamide]	125.5 to 128

More lines, now with the values ahead:

melting point [°C]	Compound
147 to 147.5	C/C(=C\c1ccc(OC(C)C)cc1Oc1ncc(C(F)(F)F)cc1Cl)C(=O)NS(=O)(=O)NCCc1ccccc1 [Example 220, (2E)-3-(2-{[3-chloro-5-(trifluoromethyl)pyridin-2-yl]oxy}-4-isopropoxyphenyl)-2-methyl-N-{[(2-phenylethyl)amino]sulfonyl}acrylamide]
120 to 121	COCCCNS(=O)(=O)NC(=O)/C(C)=C/c1ccc(OC(C)C)cc1Oc1ncc(C(F)(F)F)cc1Cl [Example 221, (2E)-3-(2-{[3-chloro-5-(trifluoromethyl)pyridin-2-yl]oxy}-4-isopropoxyphenyl)-N-{[(3-methoxypropyl)amino]sulfonyl}-2-methylacrylamide]
137.5 to 137.7	C/C(=C\c1ccc(OC(C)C)cc1Oc1ncc(C(F)(F)F)cc1Cl)C(=O)NS(=O)(=O)NCCOC(C)C [Example 222, (2E)-3-(2-{[3-chloro-5-(trifluoromethyl)pyridin-2-yl]oxy}-4-isopropoxyphenyl)-N-{[(2-isopropoxyethyl)amino]sulfonyl}-2-methylacrylamide]
121 to 122	COCCCNS(=O)(=O)NC(=O)/C(C)=C/c1ccc(OCCOC)cc1Oc1ncc(C(F)(F)F)cc1Cl [Example 227, (2E)-3-[2-{[3-chloro-5-(trifluoromethyl)pyridin-2-yl]oxy}-4-(2-methoxyethoxy)phenyl]-N-{[(3-methoxypropyl)amino]sulfonyl}-2-methylacrylamide]
85 to 85.5	COCCOc1ccc(/C=C/C(=O)NS(=O)(=O)NCCc2ccccc2)c(Oc2ncc(C(F)(F)F)cc2Cl)c1 [Example 228, (2E)-3-[2-{[3-chloro-5-(trifluoromethyl)pyridin-2-yl]oxy}-4-(2-methoxyethoxy)phenyl]-N-{[(2-phenylethyl)amino]sulfonyl}acrylamide]
145.7 to 145.8	COCCOc1ccc(/C=C(\C)C(=O)NS(=O)(=O)c2ccc(Cl)cc2)c(Oc2ncc(C(F)(F)F)cc2Cl)c1 [Example 230, (2E)-N-[(4-chlorophenyl)sulfonyl]-3-[2-{[3-chloro-5-(trifluoromethyl)pyridin-2-yl]oxy}-4-(2-methoxyethoxy)phenyl]-2-methylacrylamide]
125.3 to 126.5	C/C(=C\c1ccc(OC(C)C)cc1Oc1ncc(C(F)(F)F)cc1Cl)C(=O)NS(=O)(=O)NCC1CCCO1 (centres unmarked) [Example 231, (2E)-3-(2-{[3-chloro-5-(trifluoromethyl)pyridin-2-yl]oxy}-4-isopropoxyphenyl)-2-methyl-N-{[(tetrahydrofuran-2-ylmethyl)amino]sulfonyl}acrylamide]
168 to 169	COCCOc1ccc(/C=C/C(=O)NS(=O)(=O)c2ccccc2Cl)c(Oc2ncc(C(F)(F)F)cc2Cl)c1 [Example 235, (2E)-N-[(2-chlorophenyl)sulfonyl]-3-[2-{[3-chloro-5-(trifluoromethyl)pyridin-2-yl]oxy}-4-(2-methoxyethoxy)phenyl]acrylamide]
159 to 159.5	COCCOc1ccc(/C=C(\C)C(=O)NS(=O)(=O)CC(F)(F)F)c(Oc2ncc(C(F)(F)F)cc2Cl)c1 [Example 244, (2E)-3-[2-{[3-chloro-5-(trifluoromethyl)pyridin-2-yl]oxy}-4-(2-methoxyethoxy)phenyl]-2-methyl-N-[(2,2,2-trifluoroethyl)sulfonyl]acrylamide]
146 to 147	COCCOc1ccc(/C=C(\C)C(=O)NS(=O)(=O)C(F)(F)F)c(Oc2ncc(C(F)(F)F)cc2Cl)c1 [Example 245, (2E)-3-[2-{[3-chloro-5-(trifluoromethyl)pyridin-2-yl]oxy}-4-(2-methoxyethoxy)phenyl]-2-methyl-N-[(trifluoromethyl)sulfonyl]acrylamide]
